Molecular target: T1, Recombinant Human Poly(ADP-Ribose)Polymerase (PARP), PARP-1 (Homo sapiens, UniProt P09874)
T1 construct: purchased Trevigen (Gaithersburg, Md.); host or cells: E. coli
Test: PARP1 assay (SPA/FlashPlate, [3H]-NAD+ incorporation into biotinylated histone H1)
Format: biochemical
Conditions: 1 nM PARP enzyme, 1.5 μM [3H]-NAD+, 200 nM biotinylated histone H1, 200 nM slDNA; Ki from inhibition curves at various substrate concentrations
Procedure: Nicotinamide[2,5′,8-3H]adenine dinucleotide and strepavidin SPA beads were obtained from Amersham Biosiences (UK). Recombinant Human Poly(ADP-Ribose)Polymerase (PARP), purified from E. coli and 6-Biotin-17-NAD^+, were obtained from Trevigen (Gaithersburg, Md.). NAD^+, histone, aminobenzamide, 3-aminobenzamide and Calf Thymus DNA (dcDNA) were obtained from Sigma (St. Louis, Mo.). Stem loop oligonucleotide containing MCAT sequence was obtained from Qiagen. The oligos were dissolved to 1 mM in annealing buffer containing 10 mM Tris HCl (pH 7.5), 1 mM EDTA, and 50 mM NaCl, incubated for 5 minutes at 95° C. and annealed at 45° C. for 45 minutes. Histone H1 (95% electrophoretically pure) was obtained from Roche (Indianapolis, Ind. Biotinylated histone H1 was prepared by treating the protein with Sulfo-NHS-LC-Biotin (Pierce Rockford, Ill.). The biotinylation reaction was conducted by slowly and intermittently adding 3 equivalents of 10 mM Sulfo-NHS-LC-Biotin to 100 μM Histone H1 in phosphate-buffered saline, pH 7.5, at 4° C. with gentle vortexing over 1 minute then incubation at 4° C. for 1 hour. Streptavidin coated (FlashPlate Plus) microplates were obtained from Perkin Elmer (Boston, Mass.).
PARP1 assay was conducted in PARP assay buffer containing 50 mM tris (pH 8.0), 1 mM DTT and 4 mM MgCl2. PARP reactions contained 1.5 μM [^3H]-NAD^+ (1.6 μCi/mmol), 200 nM biotinylated histone H1, 200 nM slDNA, and 1 nM PARP enzyme. Auto reactions utilizing SPA bead-based detection were carried out in 100 μL volumes in white 96 well plates.
Reactions were initiated by adding 50 μL of 2×NAD^+ substrate mixture to 50 μL of 2× enzyme mixture containing PARP and DNA. These reactions were terminated by the addition of 150 μL of 1.5 mM benzamide (1000-fold over its IC50). 170 μL of the stopped reaction mixtures were transferred to streptavidin Flash Plates, incubated for 1 hour and counted using a TopCount microplate scintillation counter. The Ki data (in nM) for representative compounds of this invention were determined from inhibition curves at various substrate concentrations and are shown in TABLE 1.

T1 sequence (P09874 whole entry): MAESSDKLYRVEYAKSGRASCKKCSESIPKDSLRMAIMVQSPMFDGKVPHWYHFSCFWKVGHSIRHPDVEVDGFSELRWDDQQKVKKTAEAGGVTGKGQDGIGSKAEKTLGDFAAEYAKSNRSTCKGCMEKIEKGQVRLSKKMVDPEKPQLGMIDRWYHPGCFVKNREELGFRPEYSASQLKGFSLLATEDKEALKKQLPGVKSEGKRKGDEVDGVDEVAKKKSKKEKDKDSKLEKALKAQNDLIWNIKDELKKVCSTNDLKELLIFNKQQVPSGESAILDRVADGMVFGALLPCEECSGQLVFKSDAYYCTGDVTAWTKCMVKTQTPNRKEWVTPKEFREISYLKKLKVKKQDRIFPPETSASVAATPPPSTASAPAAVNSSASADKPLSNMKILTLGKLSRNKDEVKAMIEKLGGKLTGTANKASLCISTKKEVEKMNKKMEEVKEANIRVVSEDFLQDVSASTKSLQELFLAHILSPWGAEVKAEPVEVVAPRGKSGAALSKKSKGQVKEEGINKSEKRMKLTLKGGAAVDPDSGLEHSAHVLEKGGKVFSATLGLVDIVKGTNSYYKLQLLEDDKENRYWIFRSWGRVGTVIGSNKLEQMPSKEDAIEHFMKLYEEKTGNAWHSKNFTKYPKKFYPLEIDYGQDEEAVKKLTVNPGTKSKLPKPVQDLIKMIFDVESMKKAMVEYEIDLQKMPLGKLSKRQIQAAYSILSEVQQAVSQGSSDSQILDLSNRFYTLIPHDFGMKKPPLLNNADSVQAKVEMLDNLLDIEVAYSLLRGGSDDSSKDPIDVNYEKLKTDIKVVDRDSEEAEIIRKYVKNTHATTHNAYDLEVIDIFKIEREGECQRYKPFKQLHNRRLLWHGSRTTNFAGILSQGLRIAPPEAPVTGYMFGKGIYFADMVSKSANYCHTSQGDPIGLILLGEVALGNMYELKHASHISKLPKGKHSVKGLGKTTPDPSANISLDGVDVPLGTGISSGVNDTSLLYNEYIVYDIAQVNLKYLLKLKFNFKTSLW

Row | Compound | Ki
1 | NC(=O)c1cccc2[nH]c(-c3csc(-c4ccncc4)n3)nc12 [Example 2] | 11.8 nM
2 | NC(=O)c1cccc2[nH]c(-c3ccc(C4CCCN4C4CCC4)s3)nc12 (centres unmarked) [Example 40, 2-(5-(1-cyclobutylpyrrolidin-2-yl)thien-2-yl)-1H-benzimidazole-4-carboxamide] | 10 nM
3 | CCCN1CCCCC1c1ccc(-c2nc3c(C(N)=O)cccc3[nH]2)s1 (centres unmarked) [Example 30, 2-(5-(1-propylpiperidin-2-yl)thien-2-yl)-1H-benzimidazole-4-carboxamide] | 16 nM
4 | Cc1nc(-c2cnccn2)sc1-c1nc2c(C(N)=O)cccc2[nH]1 [Example 3, 2-(4-methyl-2-pyrazin-2-yl-1,3-thiazol-5-yl)-H-benzimidazole-4-carboxamide] | 28 nM
5 | NC(=O)c1cccc2[nH]c(-c3ccc(C4CCCCN4C4CCC4)s3)nc12 (centres unmarked) [Example 32, 2-(5-(1-cyclobutylpiperidin-2-yl)thien-2-yl)-1H-benzimidazole-4-carboxamide] | 23 nM
6 | CN1CCC(c2nc(-c3nc4c(C(N)=O)cccc4[nH]3)cs2)CC1 [Example 6, 2-(2-(1-methylpiperidin-4-yl)-1,3-thiazol-4-yl)-1H-benzimidazole-4-carboxamide] | 45 nM
7 | NC(=O)c1cccc2[nH]c(-c3ccc([C@H]4CCCN4C4CCOCC4)s3)nc12 [Example 24, 2-(5-((2R)-1-tetrahydro-2H-pyran-4-ylpyrrolidin-2-yl)thien-2-yl)-1H-benzimidazole-4-carboxamide] | 12 nM
8 | CC(C)CN1CCCC1c1ccc(-c2nc3c(C(N)=O)cccc3[nH]2)cn1 (centres unmarked) [Example 45, 2-[6-(1-isobutylpyrrolidin-2-yl),pyridin-3-yl]-1H-benzimidazole-4-carboxamide] | 11 nM
9 | NC(=O)c1cccc2[nH]c(-c3ccc(C4CCCN4C4CCC4)nc3)nc12 (centres unmarked) [Example 46, 2-[6-(1-cyclobutylpyrrolidin-2-yl),pyridin-3-yl]-1H-benzimidazole-4-carboxamide] | 17 nM
10 | NC(=O)c1cccc2[nH]c(-c3ccc([C@H]4CCCN4Cc4ccccn4)s3)nc12 [Example 25, 2-(5-((2R)-1-(pyridin-2-ylmethyl)pyrrolidin-2-yl)thien-2-yl)-1H-benzimidazole-4-carboxamide] | 10 nM
11 | CN1CCC[C@@H]1c1ccc(-c2nc3c(C(N)=O)cccc3[nH]2)s1 [Example 17, 2-(5-((2R)-1-methylpyrrolidin-2-yl)thien-2-yl)-1H-benzimidazole-4-carboxamide] | 10 nM
12 | NC(=O)c1cccc2[nH]c(-c3ccc(C4CCCCN4CC4CC4)s3)nc12 (centres unmarked) [Example 31, 2-(5-(1-(cyclopropylmethyl)piperidin-2-yl)thien-2-yl)-1H-benzimidazole-4-carboxamide] | 11 nM
13 | CC(C)N1CCCC1c1ccc(-c2nc3c(C(N)=O)cccc3[nH]2)cn1 (centres unmarked) [Example 44, 2-[6-(1-isopropylpyrrolidin-2-yl)pyridin-3-yl]-1H-benzimidazole-4-carboxamide] | 41 nM
14 | NC(=O)c1cccc2[nH]c(-c3ccc(C4CCCN4C4CCCCC4)nc3)nc12 (centres unmarked) [Example 48, 2-[6-(1-cyclohexylpyrrolidin-2-yl),pyridin-3-yl]-1H-benzimidazole-4-carboxamide] | 14 nM
15 | NC(=O)c1cccc2[nH]c(-c3csc(-c4cccnc4)n3)nc12 [Example 1] | 14.5 nM
16 | NC(=O)c1cccc2[nH]c(-c3ccc(C4CCCN4C4CCCC4)nc3)nc12 (centres unmarked) [Example 47, 2-[6-(1-cyclopentylpyrrolidin-2-yl),pyridin-3-yl]-1H-benzimidazole-4-carboxamide] | 14 nM
17 | Cc1nnc(-c2ccc(-c3nc4c(C(N)=O)cccc4[nH]3)nc2)o1 [Example 53, 2-[5-(5-methyl-1,3,4-oxadiazol-2-yl)pyridin-2-yl]-1H-benzimidazole-4-carboxamide] | 317 nM
18 | CN1CCCCC1c1ccc(-c2nc3c(C(N)=O)cccc3[nH]2)s1 (centres unmarked) [Example 29, 2-(5-(1-methylpiperidin-2-yl)thien-2-yl)-1H-benzimidazole-4-carboxamide] | 14 nM
19 | NC(=O)c1cccc2[nH]c(-c3csc(C4CCN(C5CCC5)CC4)n3)nc12 [Example 9, 2-(2-(1-cyclobutylpiperidin-4-yl)-1,3-thiazol-4-yl)-1H-benzimidazole-4-carboxamide] | 44 nM
20 | CC(C)CN1CCCCC1c1ccc(-c2nc3c(C(N)=O)cccc3[nH]2)s1 (centres unmarked) [Example 33, 2-(5-(1-isobutylpiperidin-2-yl)thien-2-yl)-1H-benzimidazole-4-carboxamide] | 21 nM

Compounds with a lower Ki, results first:

Row | Ki | Compound
21 | 7 nM | CN1CCCC1c1ccc(-c2nc3c(C(N)=O)cccc3[nH]2)s1 (centres unmarked) [Example 35, 2-(5-(1-methylpyrrolidin-2-yl)thien-2-yl)-1H-benzimidazole-4-carboxamide]
22 | 5 nM | CC(C)N1CCCC1c1ccc(-c2nc3c(C(N)=O)cccc3[nH]2)s1 (centres unmarked) [Example 36, 2-(5-(1-isopropylpyrrolidin-2-yl)thien-2-yl)-1H-benzimidazole-4-carboxamide]
23 | 3.2 nM | NC(=O)c1cccc2[nH]c(-c3ccc(-c4ccncc4)s3)nc12 [Example 14, 2-(5-pyridin-4-ylthien-2-yl)-1H-benzimidazole-4-carboxamide]
24 | 2.4 nM | NC(=O)c1cccc2[nH]c(-c3ccc(-c4cccnc4)s3)nc12 [Example 13, 2-(5-pyridin-3-ylthien-2-yl)-1H-benzimidazole-4-carboxamide]
25 | 2 nM | NC(=O)c1cccc2[nH]c(-c3ccc(-c4cnccn4)s3)nc12 [Example 11, 2-(5-pyrazin-2-ylthien-2-yl)-1H-benzimidazole-4-carboxamide]
26 | 4 nM | NC(=O)c1cccc2[nH]c(-c3ccc([C@H]4CCCN4C4CCC4)s3)nc12 [Example 21, 2-(5-((2R)-1-cyclobutylpyrrolidin-2-yl)thien-2-yl)-1H-benzimidazole-4-carboxamide]
27 | 6 nM | NC(=O)c1cccc2[nH]c(-c3ccc([C@H]4CCCN4)s3)nc12 [Example 16, 2-(5-((2R)-pyrrolidin-2-yl)thien-2-yl)-1H-benzimidazole-4-carboxamide]
28 | 3 nM | NC(=O)c1cccc2[nH]c(-c3ccc(C4CCCN4)nc3)nc12 (centres unmarked) [Example 43, 2-(6-pyrrolidin-2-ylpyridin-3-yl)-1H-benzimidazole-4-carboxamide]
29 | 5 nM | NC(=O)c1cccc2[nH]c(-c3ccc(-c4ccc[nH]4)s3)nc12 [Example 15, 2-(5-(1H-pyrrol-2-yl)thien-2-yl)-1H-benzimidazole-4-carboxamide]
30 | 8 nM | CCCN1CCC[C@@H]1c1ccc(-c2nc3c(C(N)=O)cccc3[nH]2)s1 [Example 19, 2-(5-((2R)-1-propylpyrrolidin-2-yl)thien-2-yl)-1H-benzimidazole-4-carboxamide]
31 | 6 nM | NC(=O)c1cccc2[nH]c(-c3ccc(C4CCCN4CC4CC4)s3)nc12 (centres unmarked) [Example 38, 2-(5-(1-(cyclopropylmethyl)pyrrolidin-2-yl)thien-2-yl)-1H-benzimidazole-4-carboxamide]
32 | 0.8 nM | NC(=O)c1cccc2[nH]c(-c3ccc(-c4cnco4)nc3)nc12 [Example 50, 2-[6-(1,3-oxazol-5-yl)pyridin-3-yl]-1H-benzimidazole-4-carboxamide]
33 | 3.1 nM | NC(=O)c1cccc2[nH]c(-c3ccc(-c4ccccn4)s3)nc12 [Example 10, 2-(5-pyridin-2-ylthien-2-yl)-1H-benzimidazole-4-carboxamide]
34 | 8 nM | NC(=O)c1cccc2[nH]c(-c3ccc([C@H]4CCCN4C4CCCCC4)s3)nc12 [Example 23, 2-(5-((2R)-1-cyclohexylpyrrolidin-2-yl)thien-2-yl)-1H-benzimidazole-4-carboxamide]
35 | 6 nM | CC(C)N1CCC[C@@H]1c1ccc(-c2nc3c(C(N)=O)cccc3[nH]2)s1 [Example 18, 2-(5-((2R)-1-isopropylpyrrolidin-2-yl)thien-2-yl)-1H-benzimidazole-4-carboxamide]
36 | 1.8 nM | NC(=O)c1cccc2[nH]c(-c3ccc(-c4nnco4)cn3)nc12 [Example 51, 2-[5-(1,3,4-oxadiazol-2-yl)pyridin-2-yl]-1H-benzimidazole-4-carboxamide]
37 | 3 nM | NC(=O)c1cccc2[nH]c(-c3ccc([C@H]4CCCN4C4CCCC4)s3)nc12 [Example 22, 2-(5-((2R)-1-cyclopentylpyrrolidin-2-yl)thien-2-yl)-1H-benzimidazole-4-carboxamide]
38 | 7 nM | CCCN1CCCC1c1ccc(-c2nc3c(C(N)=O)cccc3[nH]2)s1 (centres unmarked) [Example 37, 2-(5-(1-propylpyrrolidin-2-yl)thien-2-yl)-1H-benzimidazole-4-carboxamide]
